Values quoted from earlier work in PubChem BioAssay AID1259409 (Chemical Carcinogenesis Research Information System (CCRIS), 2018).

Test system: rodent chemically induced tumor inhibition, incidence and multiplicity
Assay: CCRIS tumor inhibitor studies
Conditions: Route [Inhibitor]: ORAL, Promoter: NONE USED

Cc1c(-c2cnccn2)ssc1=S
tumour outcome (control, treated, inhibition, significance) (Carcinogen: AZOXYMETHANE, 25843-45-2, Dose [Inhibitor]: 0, 200 PPM IN DIET FOR 56 WK BEGINNING 2 WK PRIOR TO CARCINOGEN TREATMENT (STUDY DURATION: 56 WK), Species: RAT, Strain/Sex: F344/MALE, Target Tissue: Type of Lesion: SMALL INTESTINE (DISTAL): TUMOR, Dose [Carcinogen]: 15 MG/KG 1/WK FOR 2 WK): 12%, 5%, 58%, not significant
tumour outcome (control, treated, inhibition, significance) (Carcinogen: AZOXYMETHANE, 25843-45-2, Dose [Inhibitor]: 0, 200 PPM IN DIET FOR 56 WK BEGINNING 2 WK PRIOR TO CARCINOGEN TREATMENT (STUDY DURATION: 56 WK), Species: RAT, Strain/Sex: F344/MALE, Target Tissue: Type of Lesion: SMALL INTESTINE (PROXIMAL): TUMOR, Dose [Carcinogen]: 15 MG/KG 1/WK FOR 2 WK): 33%, 14%, 58%, not significant
tumour outcome (control, treated, inhibition, significance) (Carcinogen: AZOXYMETHANE, 25843-45-2, Dose [Inhibitor]: 0, 400 PPM IN DIET 7 WK PRIOR TO CARCINOGEN TREATMENT AND CONTINUING FOR STUDY DURATION (STUDY DURATION: 59 WK), Species: RAT, Strain/Sex: F344/MALE, Target Tissue: Type of Lesion: COLON: ADENOCARCINOMA, Dose [Carcinogen]: 15 MG/KG 1/WK FOR 2 WK): 72%, 50%, 31%, p<0.05
tumour outcome (control, treated, inhibition, significance) (Carcinogen: AZOXYMETHANE, 25843-45-2, Dose [Inhibitor]: 0, 400 PPM IN DIET 7 WK PRIOR TO CARCINOGEN TREATMENT AND CONTINUING FOR STUDY DURATION (STUDY DURATION: 59 WK), Species: RAT, Strain/Sex: F344/MALE, Target Tissue: Type of Lesion: COLON: ADENOMA, Dose [Carcinogen]: 15 MG/KG 1/WK FOR 2 WK): 14%, 8%, 43%, not calculated
tumour outcome (control, treated, inhibition, significance) (Carcinogen: AZOXYMETHANE, 25843-45-2, Dose [Inhibitor]: 0, 400 PPM IN DIET 7 WK PRIOR TO CARCINOGEN TREATMENT AND CONTINUING FOR STUDY DURATION (STUDY DURATION: 59 WK), Species: RAT, Strain/Sex: F344/MALE, Target Tissue: Type of Lesion: SMALL INTESTINE: ADENOCARCINOMA, Dose [Carcinogen]: 15 MG/KG 1/WK FOR 2 WK): 50%, 8%, 84%, p<0.001
tumour outcome (control, treated, inhibition, significance) (Carcinogen: AZOXYMETHANE, 25843-45-2, Dose [Inhibitor]: 0, 400 PPM IN DIET 7 WK PRIOR TO CARCINOGEN TREATMENT AND CONTINUING FOR STUDY DURATION (STUDY DURATION: 59 WK), Species: RAT, Strain/Sex: F344/MALE, Target Tissue: Type of Lesion: SMALL INTESTINE: ADENOMA, Dose [Carcinogen]: 15 MG/KG 1/WK FOR 2 WK): 3%, 0%, 100%, not calculated
tumour outcome (control, treated, inhibition, significance) (Carcinogen: AZOXYMETHANE, 25843-45-2, Dose [Inhibitor]: 0, 400 PPM IN DIET FOR 56 WK BEGINNING 2 WK PRIOR TO CARCINOGEN TREATMENT (STUDY DURATION: 56 WK), Species: RAT, Strain/Sex: F344/MALE, Target Tissue: Type of Lesion: COLON (DISTAL): TUMOR, Dose [Carcinogen]: 15 MG/KG 1/WK FOR 2 WK): 47%, 36%, 23%, not significant
tumour outcome (control, treated, inhibition, significance) (Carcinogen: AZOXYMETHANE, 25843-45-2, Dose [Inhibitor]: 0, 400 PPM IN DIET FOR 56 WK BEGINNING 2 WK PRIOR TO CARCINOGEN TREATMENT (STUDY DURATION: 56 WK), Species: RAT, Strain/Sex: F344/MALE, Target Tissue: Type of Lesion: COLON (PROXIMAL): TUMOR, Dose [Carcinogen]: 15 MG/KG 1/WK FOR 2 WK): 39%, 36%, 8%, not significant
tumour outcome (control, treated, inhibition, significance) (Carcinogen: AZOXYMETHANE, 25843-45-2, Dose [Inhibitor]: 0, 400 PPM IN DIET FOR 56 WK BEGINNING 2 WK PRIOR TO CARCINOGEN TREATMENT (STUDY DURATION: 56 WK), Species: RAT, Strain/Sex: F344/MALE, Target Tissue: Type of Lesion: SMALL INTESTINE (PROXIMAL): TUMOR, Dose [Carcinogen]: 15 MG/KG 1/WK FOR 2 WK): 33%, 5%, 85%, p<0.05
tumour outcome (control, treated, inhibition, significance) (Carcinogen: AZOXYMETHANE, 25843-45-2, Dose [Inhibitor]: 0, 400 PPM IN DIET FOR 56 WK BEGINNING 2 WK PRIOR TO CARCINOGEN TREATMENT (STUDY DURATION: 56 WK), Species: RAT, Strain/Sex: F344/MALE, Target Tissue: Type of Lesion: SMALL INTESTINE(DISTAL): TUMOR, Dose [Carcinogen]: 15 MG/KG 1/WK FOR 2 WK): 12%, 5%, 58%, not significant
tumour outcome (control, treated, inhibition, significance) (Carcinogen: AZOXYMETHANE, 25843-45-2, Dose [Inhibitor]: O, 200 PPM IN DIET 7 WK PRIOR TO CARCINOGEN TREATMENT AND CONTINUING FOR STUDY DURATION (STUDY DURATION: 59 WK), Species: RAT, Strain/Sex: F344/MALE, Target Tissue: Type of Lesion: SMALL INTESTINE, ADENOMA, Dose [Carcinogen]: 15 MG/KG 1/WK FOR 2 WK): 3%, 0%, 100%, not calculated
tumour outcome (control, treated, inhibition, significance) (Carcinogen: BENZO[A]PYRENE, 50-32-8, Dose [Inhibitor]: 0, 180 PPM IN DIET FOR 36 WK BEGINNING 48 HR PRIOR TO CARCINOGEN DOSE (STUDY DURATION: 36 WK), Species: MOUSE, Strain/Sex: STRAIN-A/FEMALE, Target Tissue: Type of Lesion: LUNG: TUMOR, Dose [Carcinogen]: 100 MG/KG IN 0.1 ML OF TRICAPRYLIN ONCE): 100%, 100%, 0%, not significant
tumour outcome (control, treated, inhibition, significance) (Carcinogen: BENZO[A]PYRENE, 50-32-8, Dose [Inhibitor]: 0, 360 PPM IN DIET FOR 36 WK BEGINNING 48 HR PRIOR TO CARCINOGEN DOSE (STUDY DURATION: 36 WK), Species: MOUSE, Strain/Sex: STRAIN-A/FEMALE, Target Tissue: Type of Lesion: LUNG: TUMOR, Dose [Carcinogen]: 100 MG/KG IN 0.1 ML OF TRICAPRYLIN ONCE): 100%, 100%, 0%, not significant
tumour outcome (control, treated, inhibition, significance) (Carcinogen: DIETHYLNITROSAMINE, 55-18-5, Dose [Inhibitor]: 0, 300 MG/KG DIET FOR DURATION OF STUDY BEGINNING 1 WK PRIOR TO CARCINOGEN TREATMENT (STUDY DURATION: 25 WK), Species: HAMSTER, Strain/Sex: SYRIAN/MALE, Target Tissue: Type of Lesion: LUNG: CARCINOMA, Dose [Carcinogen]: 17.8 MG/KG BW 2/WK FOR 20 WK): 50%, 33%, 34%, not significant
tumour outcome (control, treated, inhibition, significance) (Carcinogen: DIETHYLNITROSAMINE, 55-18-5, Dose [Inhibitor]: 0, 300 MG/KG DIET FOR DURATION OF STUDY BEGINNING 1 WK PRIOR TO CARCINOGEN TREATMENT (STUDY DURATION: 25 WK), Species: HAMSTER, Strain/Sex: SYRIAN/MALE, Target Tissue: Type of Lesion: TRACHEA: PAPILLOMA, Dose [Carcinogen]: 17.8 MG/KG BW 2/WK FOR 20 WK): 95%, 85%, 11%, not significant
tumour outcome (control, treated, inhibition, significance) (Carcinogen: DIETHYLNITROSAMINE, 55-18-5, Dose [Inhibitor]: 0, 600 MG/KG DIET FOR DURATION OF STUDY BEGINNING 1 WK PRIOR TO CARCINOGEN TREATMENT (STUDY DURATION: 25 WK), Species: HAMSTER, Strain/Sex: SYRIAN/MALE, Target Tissue: Type of Lesion: LUNG: CARCINOMA, Dose [Carcinogen]: 17.8 MG/KG BW 2/WK FOR 20 WK): 60%, 0%, 100%, p<0.0001
